The values below come from PubChem BioAssay (NCI).

Test systems include HT29 colon; KM12 colon; HCC-2998 colon; SF-268 CNS; MDA-MB-435; MDA-MB-231 breast; NCI-H226 lung; NCI/ADR-RES ovarian; MALME-3M melanoma; RXF 393 renal.
Common to all, as to assay: growth of human tumour cells (NCI), 48 h

Each structure is given as a SMILES string.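 Where inhibition never reached the appropriate level, the endpoint shown equals the highest concentration tested. Otherwise, values were interpolated linearly from a five-concentration, 48-hour dose response in 96-well plates. Abbreviation: GI50, concentration required for 50% inhibition of growth. TGI marks complete inhibition of growth.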

For `CCCCCc1c(C)[nH]c(/C=C2\N=C(c3ccc[nH]3)C=C2CC)c1C`, the GI50 in the assay on HT29 colon, with KM12 colon, in the assay with HCC-2998 colon, in the assay on SF-268 CNS, with MDA-MB-435 and in the assay with MDA-MB-231 breast was less than 0.01 µM each time. Moreover, the figures for the GI50 in the assay with NCI-H226 lung, in the assay on NCI/ADR-RES ovarian and with MALME-3M melanoma were less than 0.0131 µM, 0.0139 µM and 0.0333 µM, respectively. The TGI was 0.131 µM with HT29 colon; 0.191 µM in the assay with KM12 colon; 0.174 µM in the assay on HCC-2998 colon; 0.802 µM with SF-268 CNS; 0.108 µM in the assay on MDA-MB-435; 0.0186 µM in the assay with MDA-MB-231 breast. The values for the TGI in the assay with NCI-H226 lung, with NCI/ADR-RES ovarian and in the assay on MALME-3M melanoma were 0.0452 µM, 0.124 µM and 0.187 µM, respectively.

`c1ccc2c3ccn4cc5c(cc4c-3nc2c1)CCCC5`: the GI50 was 2.55 µM in the assay on HT29 colon; 4.3 µM in the assay on HCC-2998 colon; 1.56 µM in the assay on MDA-MB-435; 5.62 µM in the assay on RXF 393 renal; 4.47 µM in the assay with MDA-MB-231 breast; 3.3 µM in the assay with NCI-H226 lung. Also, in the assay with NCI/ADR-RES ovarian, the GI50 is 55 µM. Further, the TGI in the assay with HT29 colon came out at 13 µM; with KM12 colon it was 8.59 µM; in the assay on HCC-2998 colon, 15 µM; with SF-268 CNS, 14.4 µM; in the assay on MDA-MB-435, 4.19 µM; in the assay with RXF 393 renal, 27 µM. The TGI was 20.8 µM in the assay with MDA-MB-231 breast, 10.2 µM in the assay with NCI-H226 lung and more than 100 µM in the assay with NCI/ADR-RES ovarian.

On to `O=C1c2ccn(CCCCNC(CO)(CO)CO)c2C(=O)c2c1c(O)c1ccccc1c2O`, for which the GI50 with HT29 colon is 1.83 µM; with KM12 colon it was 0.592 µM; with HCC-2998 colon, 0.17 µM; in the assay with SF-268 CNS, 3.41 µM; with MDA-MB-435, 0.992 µM; with MDA-MB-231 breast, 0.457 µM. Besides, the GI50 with NCI-H226 lung was 2.81 µM; in the assay with NCI/ADR-RES ovarian, 16.3 µM. Also, the TGI came to 4.37 µM in the assay with HT29 colon; 1.76 µM with KM12 colon; 0.515 µM in the assay with HCC-2998 colon; 18.1 µM in the assay with SF-268 CNS; 2.42 µM with MDA-MB-435; 2.26 µM with MDA-MB-231 breast. Further, the TGI in the assay with NCI-H226 lung stood at 9.35 µM; with NCI/ADR-RES ovarian, 42.3 µM.

For the compound `CC(=O)c1c(CBr)n([O-])c2ccccc2[n+]1=O`, the GI50 in the assay with HT29 colon is 8.34 µM; in the assay on KM12 colon, 15 µM; in the assay with HCC-2998 colon, 17.6 µM; in the assay with MDA-MB-435 it was 12.5 µM; in the assay with RXF 393 renal, 15.3 µM; in the assay on MDA-MB-231 breast, 12.2 µM. In addition, the values for the GI50 with NCI-H226 lung, in the assay with NCI/ADR-RES ovarian and with MALME-3M melanoma were 13.4 µM, 19.5 µM and 4.48 µM, respectively. The TGI was 25.9 µM in the assay with HT29 colon; 29.2 µM in the assay with KM12 colon; 34.5 µM in the assay with HCC-2998 colon; 25.6 µM with MDA-MB-435; 32.6 µM in the assay on RXF 393 renal; 25 µM in the assay with MDA-MB-231 breast. Further, the TGI in the assay on NCI-H226 lung was determined as 28 µM; with NCI/ADR-RES ovarian, 50.3 µM; in the assay with MALME-3M melanoma it was 17.4 µM.

Take `COc1ccc(/C=c2/sc3n(c2=O)C(c2ccc(OC)c(OC)c2)C2=C(N=3)c3cc(F)ccc3OC2)cc1` (stereo unspecified): the GI50 in the assay on HT29 colon is 16.2 µM; in the assay on KM12 colon, 18.1 µM; in the assay on SF-268 CNS it was 15.5 µM; with MDA-MB-435, 14.1 µM; with RXF 393 renal it was more than 100 µM; with MDA-MB-231 breast, 14.8 µM. Moreover, the figures for the GI50 in the assay with NCI-H226 lung and in the assay with NCI/ADR-RES ovarian were 9.17 µM and 18.7 µM, respectively. Besides, the TGI with HT29 colon was more than 100 µM; in the assay on KM12 colon it was more than 79.2 µM; in the assay with HCC-2998 colon, 21.2 µM; in the assay with SF-268 CNS, more than 100 µM; in the assay on MDA-MB-435, 41.1 µM; in the assay on RXF 393 renal it was more than 100 µM. In addition, the TGI in the assay on MDA-MB-231 breast was more than 75.1 µM; with NCI-H226 lung, more than 60.2 µM; in the assay on NCI/ADR-RES ovarian it was 87.4 µM.

As for `COc1cc2c(cc1OC)C13CCN4CC5=CCOC6CC(=O)N2C1C6C5CC43O` (stereo unspecified), the TGI with HT29 colon, in the assay on KM12 colon, in the assay with HCC-2998 colon, with SF-268 CNS, in the assay on MDA-MB-435 and in the assay with MDA-MB-231 breast was more than 100 µM throughout. Besides, the TGI in the assay on NCI-H226 lung, in the assay on NCI/ADR-RES ovarian and in the assay with MALME-3M melanoma was more than 100 µM in each case.

With `O=C(CCCN1CC=C(n2c(=O)[nH]c3ccccc32)CC1)c1ccc(F)cc1`, the GI50 in the assay with HT29 colon is 27.6 µM; with KM12 colon it was 30.7 µM; in the assay with HCC-2998 colon, 48 µM; in the assay on MDA-MB-435 it was 18.1 µM; with RXF 393 renal, 19 µM; with MDA-MB-231 breast, 62.8 µM. Also, the values for the GI50 with NCI-H226 lung, with NCI/ADR-RES ovarian and in the assay on MALME-3M melanoma were 25.5 µM, 22.9 µM and 38.9 µM, respectively. The TGI in the assay with HT29 colon is more than 100 µM; with KM12 colon it was more than 100 µM; in the assay on HCC-2998 colon it was more than 100 µM; in the assay with MDA-MB-435, 49.5 µM; with RXF 393 renal, more than 100 µM; with MDA-MB-231 breast, more than 100 µM. Moreover, the TGI with NCI-H226 lung, in the assay on NCI/ADR-RES ovarian and in the assay on MALME-3M melanoma was more than 100 µM each time.

On to `COc1cc(/C=C2\C(=O)Nc3ccc(F)cc32)cc(OC)c1OC`, for which the GI50 in the assay on HT29 colon was 24.8 µM; with KM12 colon, 26.2 µM; in the assay with SF-268 CNS, 28.3 µM; in the assay with MDA-MB-435 it was 5.5 µM; in the assay with MDA-MB-231 breast, 3.16 µM; in the assay with NCI-H226 lung, 23.7 µM. Besides, the results for the GI50 with NCI/ADR-RES ovarian and in the assay with MALME-3M melanoma were 18.9 µM and 29.6 µM, respectively. Moreover, the TGI in the assay on HT29 colon was more than 100 µM; with KM12 colon it was more than 100 µM; in the assay on SF-268 CNS it was more than 100 µM; in the assay with MDA-MB-435, more than 100 µM; in the assay with MDA-MB-231 breast it was 36.3 µM; with NCI-H226 lung, more than 100 µM. Further, the TGI with NCI/ADR-RES ovarian and with MALME-3M melanoma was more than 100 µM in each case.

As to `Nc1nc(Nc2ccccc2)c2ncn(Cc3cc4c(cc3Br)OCO4)c2n1`, the GI50 with HT29 colon was 0.0484 µM; with KM12 colon, 0.0418 µM; in the assay on HCC-2998 colon, 0.205 µM; in the assay with SF-268 CNS it was 0.128 µM; with MDA-MB-435, 0.0301 µM; in the assay on RXF 393 renal it was 0.0602 µM. The figures for the GI50 with MDA-MB-231 breast, in the assay on NCI-H226 lung and in the assay with NCI/ADR-RES ovarian were 0.0497 µM, 0.777 µM and 0.0565 µM, respectively. Further, the TGI with HT29 colon is 0.706 µM; with KM12 colon it was 21 µM; in the assay with HCC-2998 colon, more than 32.7 µM; with SF-268 CNS, 45.3 µM; with MDA-MB-435 it was 0.129 µM; with RXF 393 renal, 8.65 µM. In addition, the TGI in the assay with MDA-MB-231 breast was more than 51.9 µM; in the assay with NCI-H226 lung it was 31.5 µM; in the assay on NCI/ADR-RES ovarian, more than 37.5 µM.
